Numbers after ± are expanded uncertainties.
Assay: wn = mass fraction of the nth substance listed
Details: 101 kPa, Liquid

SMILES: CCC[n+]1ccn(C)c1.[Br-] [1-methyl-3-propylimidazolium bromide] + CN(C)C=O
- mass density (288.15 K, w1 = 0.006): 955.471 ± 0.59 kg/m3
- speed of sound (288.15 K, w1 = 0.006): 1498.4 ± 1.5 m/s
- mass density (288.15 K, w1 = 0.0073): 955.896 ± 0.59 kg/m3
- speed of sound (288.15 K, w1 = 0.0073): 1498.7 ± 1.5 m/s
- mass density (288.15 K, w1 = 0.0101): 956.834 ± 0.58 kg/m3
- speed of sound (288.15 K, w1 = 0.0101): 1499.5 ± 1.5 m/s
- mass density (288.15 K, w1 = 0.012): 957.413 ± 0.58 kg/m3
- speed of sound (288.15 K, w1 = 0.012): 1499.8 ± 1.5 m/s
- mass density (288.15 K, w1 = 0.0162): 958.776 ± 0.58 kg/m3
- speed of sound (288.15 K, w1 = 0.0162): 1500.8 ± 1.5 m/s
- mass density (288.15 K, w1 = 0.0204): 960.154 ± 0.57 kg/m3
- speed of sound (288.15 K, w1 = 0.0204): 1501.7 ± 1.5 m/s
- mass density (288.15 K, w1 = 0.0249): 961.605 ± 0.56 kg/m3
- speed of sound (288.15 K, w1 = 0.0249): 1502.7 ± 1.5 m/s
- mass density (288.15 K, w1 = 0.0303): 963.324 ± 0.56 kg/m3
- speed of sound (288.15 K, w1 = 0.0303): 1503.7 ± 1.6 m/s
- mass density (288.15 K, w1 = 0.0348): 964.79 ± 0.55 kg/m3
- speed of sound (288.15 K, w1 = 0.0348): 1504.8 ± 1.6 m/s
- mass density (288.15 K, w1 = 0.0405): 966.57 ± 0.54 kg/m3
- speed of sound (288.15 K, w1 = 0.0405): 1505.8 ± 1.6 m/s
- mass density (288.15 K, w1 = 0.0503): 969.758 ± 0.53 kg/m3
- speed of sound (288.15 K, w1 = 0.0503): 1507.8 ± 1.6 m/s
- mass density (288.15 K, w1 = 0.0586): 972.333 ± 0.52 kg/m3
- speed of sound (288.15 K, w1 = 0.0586): 1509.3 ± 1.6 m/s
- mass density (288.15 K, w1 = 1): 1323.47 ± 3.3 kg/m3
- speed of sound (288.15 K, w1 = 1): 1699.3 ± 2.6 m/s
- mass density (293.15 K, w1 = 0.006): 950.721 ± 0.61 kg/m3
- speed of sound (293.15 K, w1 = 0.006): 1479.2 ± 1.5 m/s
- mass density (293.15 K, w1 = 0.0073): 951.148 ± 0.61 kg/m3
- speed of sound (293.15 K, w1 = 0.0073): 1479.5 ± 1.5 m/s
- mass density (293.15 K, w1 = 0.0101): 952.089 ± 0.61 kg/m3
- speed of sound (293.15 K, w1 = 0.0101): 1480.2 ± 1.5 m/s
- mass density (293.15 K, w1 = 0.012): 952.669 ± 0.6 kg/m3
- speed of sound (293.15 K, w1 = 0.012): 1480.3 ± 1.5 m/s
- mass density (293.15 K, w1 = 0.0162): 954.039 ± 0.6 kg/m3
- speed of sound (293.15 K, w1 = 0.0162): 1481.6 ± 1.5 m/s
- mass density (293.15 K, w1 = 0.0204): 955.416 ± 0.59 kg/m3
- speed of sound (293.15 K, w1 = 0.0204): 1482.2 ± 1.5 m/s
- mass density (293.15 K, w1 = 0.0249): 956.878 ± 0.59 kg/m3
- speed of sound (293.15 K, w1 = 0.0249): 1483.5 ± 1.5 m/s
- mass density (293.15 K, w1 = 0.0303): 958.602 ± 0.58 kg/m3
- speed of sound (293.15 K, w1 = 0.0303): 1484.4 ± 1.5 m/s
- mass density (293.15 K, w1 = 0.0348): 960.068 ± 0.57 kg/m3
- speed of sound (293.15 K, w1 = 0.0348): 1485.4 ± 1.5 m/s
- mass density (293.15 K, w1 = 0.0405): 961.858 ± 0.57 kg/m3
- speed of sound (293.15 K, w1 = 0.0405): 1486.5 ± 1.5 m/s
- mass density (293.15 K, w1 = 0.0503): 965.06 ± 0.55 kg/m3
- speed of sound (293.15 K, w1 = 0.0503): 1488.8 ± 1.5 m/s
- mass density (293.15 K, w1 = 0.0586): 967.639 ± 0.54 kg/m3
- speed of sound (293.15 K, w1 = 0.0586): 1490.1 ± 1.5 m/s
- mass density (293.15 K, w1 = 1): 1319.84 ± 3.3 kg/m3
- speed of sound (293.15 K, w1 = 1): 1685 ± 2.6 m/s
- mass density (298.15 K, w1 = 0.006): 945.962 ± 0.64 kg/m3
- speed of sound (298.15 K, w1 = 0.006): 1459.8 ± 1.5 m/s
- mass density (298.15 K, w1 = 0.0073): 946.392 ± 0.63 kg/m3
- speed of sound (298.15 K, w1 = 0.0073): 1460.1 ± 1.5 m/s
- mass density (298.15 K, w1 = 0.0101): 947.339 ± 0.63 kg/m3
- speed of sound (298.15 K, w1 = 0.0101): 1460.8 ± 1.5 m/s
- mass density (298.15 K, w1 = 0.012): 947.92 ± 0.63 kg/m3
- speed of sound (298.15 K, w1 = 0.012): 1460.9 ± 1.5 m/s
- mass density (298.15 K, w1 = 0.0162): 949.295 ± 0.62 kg/m3
- speed of sound (298.15 K, w1 = 0.0162): 1462.2 ± 1.5 m/s
- mass density (298.15 K, w1 = 0.0204): 950.675 ± 0.61 kg/m3
- speed of sound (298.15 K, w1 = 0.0204): 1462.9 ± 1.5 m/s
- mass density (298.15 K, w1 = 0.0249): 952.144 ± 0.61 kg/m3
- speed of sound (298.15 K, w1 = 0.0249): 1464.2 ± 1.5 m/s
- mass density (298.15 K, w1 = 0.0303): 953.872 ± 0.6 kg/m3
- speed of sound (298.15 K, w1 = 0.0303): 1465.1 ± 1.5 m/s
- mass density (298.15 K, w1 = 0.0348): 955.349 ± 0.59 kg/m3
- speed of sound (298.15 K, w1 = 0.0348): 1466.2 ± 1.5 m/s
- mass density (298.15 K, w1 = 0.0405): 957.139 ± 0.59 kg/m3
- speed of sound (298.15 K, w1 = 0.0405): 1467.3 ± 1.5 m/s
- mass density (298.15 K, w1 = 0.0503): 960.356 ± 0.57 kg/m3
- speed of sound (298.15 K, w1 = 0.0503): 1469.7 ± 1.5 m/s
- mass density (298.15 K, w1 = 0.0586): 962.94 ± 0.56 kg/m3
- speed of sound (298.15 K, w1 = 0.0586): 1471 ± 1.5 m/s
- mass density (298.15 K, w1 = 1): 1316.22 ± 3.3 kg/m3
- speed of sound (298.15 K, w1 = 1): 1672 ± 2.6 m/s
- mass density (303.15 K, w1 = 0.006): 941.197 ± 0.66 kg/m3
- speed of sound (303.15 K, w1 = 0.006): 1440.5 ± 1.5 m/s
- mass density (303.15 K, w1 = 0.0073): 941.628 ± 0.66 kg/m3
- speed of sound (303.15 K, w1 = 0.0073): 1440.8 ± 1.5 m/s
- mass density (303.15 K, w1 = 0.0101): 942.58 ± 0.65 kg/m3
- speed of sound (303.15 K, w1 = 0.0101): 1441.4 ± 1.5 m/s
- mass density (303.15 K, w1 = 0.012): 943.162 ± 0.65 kg/m3
- speed of sound (303.15 K, w1 = 0.012): 1441.6 ± 1.5 m/s
- mass density (303.15 K, w1 = 0.0162): 944.542 ± 0.64 kg/m3
- speed of sound (303.15 K, w1 = 0.0162): 1442.9 ± 1.5 m/s
- mass density (303.15 K, w1 = 0.0204): 945.932 ± 0.64 kg/m3
- speed of sound (303.15 K, w1 = 0.0204): 1443.6 ± 1.5 m/s
- mass density (303.15 K, w1 = 0.0249): 947.403 ± 0.63 kg/m3
- speed of sound (303.15 K, w1 = 0.0249): 1445 ± 1.5 m/s
- mass density (303.15 K, w1 = 0.0303): 949.136 ± 0.62 kg/m3
- speed of sound (303.15 K, w1 = 0.0303): 1445.9 ± 1.5 m/s
- mass density (303.15 K, w1 = 0.0348): 950.617 ± 0.62 kg/m3
- speed of sound (303.15 K, w1 = 0.0348): 1447 ± 1.5 m/s
- mass density (303.15 K, w1 = 0.0405): 952.415 ± 0.61 kg/m3
- speed of sound (303.15 K, w1 = 0.0405): 1448.2 ± 1.5 m/s
- mass density (303.15 K, w1 = 0.0503): 955.641 ± 0.6 kg/m3
- speed of sound (303.15 K, w1 = 0.0503): 1450.5 ± 1.5 m/s
- mass density (303.15 K, w1 = 0.0586): 958.234 ± 0.59 kg/m3
- speed of sound (303.15 K, w1 = 0.0586): 1452 ± 1.5 m/s
- mass density (303.15 K, w1 = 1): 1312.6 ± 3.2 kg/m3
- speed of sound (303.15 K, w1 = 1): 1659.9 ± 2.6 m/s
- mass density (308.15 K, w1 = 0.006): 936.424 ± 0.68 kg/m3
- speed of sound (308.15 K, w1 = 0.006): 1421.2 ± 1.5 m/s
- mass density (308.15 K, w1 = 0.0073): 936.859 ± 0.68 kg/m3
- speed of sound (308.15 K, w1 = 0.0073): 1421.5 ± 1.5 m/s
- mass density (308.15 K, w1 = 0.0101): 937.812 ± 0.67 kg/m3
- speed of sound (308.15 K, w1 = 0.0101): 1422.2 ± 1.5 m/s
- mass density (308.15 K, w1 = 0.012): 938.398 ± 0.67 kg/m3
- speed of sound (308.15 K, w1 = 0.012): 1422.5 ± 1.5 m/s
- mass density (308.15 K, w1 = 0.0162): 939.782 ± 0.67 kg/m3
- speed of sound (308.15 K, w1 = 0.0162): 1423.7 ± 1.5 m/s
- mass density (308.15 K, w1 = 0.0204): 941.175 ± 0.66 kg/m3
- speed of sound (308.15 K, w1 = 0.0204): 1424.5 ± 1.5 m/s
- mass density (308.15 K, w1 = 0.0249): 942.652 ± 0.65 kg/m3
- speed of sound (308.15 K, w1 = 0.0249): 1425.8 ± 1.5 m/s
- mass density (308.15 K, w1 = 0.0303): 944.395 ± 0.65 kg/m3
- speed of sound (308.15 K, w1 = 0.0303): 1426.9 ± 1.5 m/s
- mass density (308.15 K, w1 = 0.0348): 945.882 ± 0.64 kg/m3
- speed of sound (308.15 K, w1 = 0.0348): 1428.1 ± 1.5 m/s
- mass density (308.15 K, w1 = 0.0405): 947.684 ± 0.63 kg/m3
- speed of sound (308.15 K, w1 = 0.0405): 1429.2 ± 1.5 m/s
- mass density (308.15 K, w1 = 0.0503): 950.923 ± 0.62 kg/m3
- speed of sound (308.15 K, w1 = 0.0503): 1431.6 ± 1.5 m/s
- mass density (308.15 K, w1 = 0.0586): 953.523 ± 0.61 kg/m3
- speed of sound (308.15 K, w1 = 0.0586): 1433.1 ± 1.5 m/s
- mass density (308.15 K, w1 = 1): 1308.97 ± 3.2 kg/m3
- speed of sound (308.15 K, w1 = 1): 1648.3 ± 2.6 m/s

— the NIST ThermoML archive (doi:10.1007/s10765-009-0648-5)
